Laboratory results: publication PMC12422582, “A divergent cyclic nucleotide binding protein promotes Plasmodium ookinete infection of the mosquito” (PLOS Pathogens, 2025)

Tests used:
CNB3 of PbCBP-O (PbCNB3) = biological target: T1, CNB3 of PbCBP-O (PbCNB3) (Plasmodium berghei, UniProt A0A509AL17); experiment: cGMP-agarose pull-down, anti-His western blot; assay type: binding; conditions: ligand immobilised through position […] as 8-AET-cGMP-Agarose (BioLog); E. coli lysate, Hepes pH […]°C, […] h
T1 construct: gene PBANKA_1025300; N-terminal 6xHis, pET28a, E. coli Rosetta DE3, soluble lysate

[1] = biological target: T2, CBP-O(ΔN-term), GFP-tagged (Plasmodium berghei, UniProt A0A509AL17); experiment: cGMP-agarose pull-down from schizont lysate, anti-GFP western blot; assay type: biochemical; conditions: ligand immobilised as 8-AET-cGMP-Agarose; Hepes pH […]°C, […] h
T2 construct: gene PBANKA_1025300; endogenous locus edited: residues 1-1694 deleted, CNB1-4/X kept, GFP tag; P. berghei schizont lysate

Nc1nc2c(ncn2[C@@H]2O[C@@H]3COP(=O)(O)O[C@H]3[C@H]2O)c(=O)[nH]1 [cGMP]
cGMP-agarose pull-down, anti-His western blot (CNB3 of PbCBP-O (PbCNB3)): CNB3 showed affinity for both cAMP and cGMP (Fig 6C) | cGMP-agarose pull-down from schizont lysate, anti-GFP western blot [1]: the N-term mutant retained cyclic nucleotide binding activity (Fig 6D)
